Results reported in patent US8507408B2 (Dow Global Technologies LLC, priority 2010, dated 2013).
≈ marks a conversion by molar mass, not a printed value. Read-outs that look alike come from different tables or passages of the source. Values belong to the compound of their own block, whether it stands above or below them.

Legend:
An + Pf = experiment: Fungal efficacy on dry paint film (Modified ASTM 5590); format: cell-based, Aspergillus niger, Penicillium funiculosum; conditions: for MIC: total actives in paint, read-out: Total conc (minimum inhibitory concentration chosen for SI)
Description: (§1) A single biocide or blend of biocides was post added into white acrylic latex paint free of biocides to give a maximum total active ingredient/s concentration tested. This paint was then diluted with a biocide free acrylic latex paint to give targeted concentrations for the testing. Depending on the type of biocide blends tested, the total biocides concentrations varies from 400 to 3300 ppm. After biocides addition or dilution, each sample was hand mixed for at least a minute until uniformity was achieved. Each of the paint samples as well as a control sample (containing no biocide) were used to prepare films on black plastic-vinyl chloride/acetate copolymer panels (Leneta Company, Mahwah, N.J.) using a 0.0762 mm (3 mil) bird bar applicator. The panels were thoroughly dried for at least 2 days avoiding direct exposure to sunlight. Square discs (0.5 inch^2; 1.27 cm^2) were cut out from each panel and were used as the substrate for fungal and algal efficacy tests. This sample size allowed for an agar border when the sample disc was placed into the well of the test plate. Each sample was tested in duplicate.
(§2) The appropriate media (BOLD'S 3N for Chlorophytes, BG-11 for Cyanobacteria, and PDA for fungi) were used to support microbial growth. The test plates were maintained at room temp (25° C.-26° C.), in a cycled light-dark environment, for four weeks for algae. Plates for fungal challenge tests were maintained at 30° C. for four weeks. At the end of the incubation period the samples were scored for percent area covered by visible microbial growth.
(§3) ASTM 5590 is a standard accelerated test method for determining resistance of various coatings (including paints) to fungal defacement. To accommodate for high-throughput screening, this method was scaled down from petri plates to 6-well plates. To set up the test, an agar plug was placed at the bottom of each well of the sterile 6-well plate. A single coupon was placed with a pair of sterile forceps at the center of the agar plug (on top) with the painted surface facing upwards. Fungal inoculums were prepared by mixing equal concentrations (approximately 1×10^6 cfu/ml) and equal volumes (depending on number of samples to be tested) of like growing organisms. For this synergy study, three pools of mixed fungi were prepared as the test inoculum. Cladosporium herbarum was mixed with Trichoderma viride, Aspergillus niger was mixed with Penicillium funiculosum and Alternaria alternata was mixed with Aureobasidium pullulans. Each well was inoculated with 400 microliter of organism mixture (approximately 1×10^6 cfu/ml) making sure that the whole surface (paint film as well as the agar surrounding it) was evenly covered. The plates were incubated at 30° C. in presence of moisture, for a period of four weeks. The total percent area covered was evaluated and recorded at the end of each week and recorded in increments of 5%.
(§4) The SI is calculated based on F. C. Kull et.
(§5) NE=no end point at the concentration tested that will meet the percent inhibition criteria set in each SI calculation.

Cs + Ck + Nc = experiment: Algal efficacy on dry paint film (Modified ASTM 5589); format: cell-based, Chlorella sp., Chlorella kessleri, and Nostoc commune; conditions: for MIC: Nostoc commune, total actives in paint, read-out: Total conc (minimum inhibitory concentration chosen for SI)
Description: as §1, §2
(§6) ASTM 5589 is a standard accelerated test method for determining resistance of various coatings (including paints) to algal defacement. To accommodate for high-throughput screening, this method was scaled down from petri plates to 6-well plates. A single coupon was placed with a pair of sterile forceps at the center of the agar plug (on top) with the painted surface facing upwards. Algal inoculums were prepared by mixing equal concentrations (approximately 1×10^6 cfu/ml) and equal volumes (depending on number of samples to be inoculated) of like growing organisms.
(§7) In this synergy study, three pool of mixed algae were prepared as the test inoculum, Gloeocapsa sp. and Oscillatoria sp. a mix of cyanobacteria grown on BG-11 media; Chlorella sp., Chlorella kessleri, and Nostoc commune are unicellular chlorphytes that were mixed and grown on Bold media; Trentepohlia aurea, Tretepohlia odorata, and Calotrix parientina are filamentous algae that were mixed and grown on Bold media.
(§8) Each well that contained a tested coupon was inoculated with 400 μl of organism mixture (approximately 1×10^6 cfu/ml) making sure that the whole surface (paint film as well as the agar surrounding it) was evenly covered. The plates were incubated at room temp (25° C.-26° C.) with cyclic exposure to light (OTT-Lite model #OTL4012P, 40 Watt, 26 KLumen) and dark phases, for a period of four weeks. The total area covered was evaluated at the end of each week according to percent area covered in 5% increments.
as §4, §5

ApCh = experiment: Fungal efficacy on dry paint film (Modified ASTM 5590); format: cell-based, Aureobasidium pullulans, Cladosporium herbarum; conditions: for % Inhibition: at the total conc; for MIC: total actives in paint, read-out: Total conc (minimum inhibitory concentration chosen for SI)
Description: as §1, §2
as §3, with “Each well was inoculated with 400 microliter of organism mixture (approximately 1×10^6 cfu/ml) making sure that the whole surface (paint film as well as the agar surrounding it) was evenly covered. The plates were incubated at 30° C. in presence of moisture, for a period of four weeks.” left out
The SI is calculated based on F. C. […]

AaTv = experiment: as above; format: cell-based, Alternaria alternata, Trichoderma viride; conditions: for % Inhibition: at the total conc; for MIC: total actives in paint, read-out: Total conc (minimum inhibitory concentration chosen for SI)
Cp + To + Ta = experiment: Algal efficacy on dry paint film (Modified ASTM 5589); format: cell-based; conditions: for Total conc (minimum inhibitory concentration chosen for SI): total actives in paint
Description: as §1, §2, §6, §7, §8, §4, §5

Gs + Os = experiment: as above; format: cell-based, Gloeocapsa sp. and Oscillatoria sp.; conditions: for MIC: total actives in paint, read-out: Total conc (minimum inhibitory concentration chosen for SI)
Description: as §1, §2, §6, §7, §8, §4, §5

[1] = tested on: diatom (Navicula pelliculosa); conditions: 7 day; cited from earlier work
[2] = tested on: green algae (Selenastrum capricornutum); conditions: cited from earlier work; for EbC50: median effective concentration for biomass
TV + Ch = experiment: Fungal efficacy on dry paint film (Modified ASTM 5590); format: cell-based, Trichoderma viride, Cladosporium herbarum; conditions: four weeks
Description: as §1, §2, §3, §4

[3] = tested on: marine algae (Skeletonema costatum); conditions: cited from earlier work
Aa + Ap = experiment: Fungal efficacy on dry paint film (Modified ASTM 5590); format: cell-based, Alternaria alternata, Aureobasidium pullulans; conditions: four weeks
Description: as §1, §2, §3, §4

[4] = tested on: blue-green algae (Anabaena flos-aquae); conditions: 7 day; cited from earlier work
[5] = cited from earlier work
[6] = Zinc Glyphosate with DCOIT study, at the total conc
[7] = Zinc Glyphosate with DCOIT study
[8] = Zinc Glyphosate with OIT study, at the total conc
[9] = Zinc Glyphosate with OIT study, NE=no end point at the concentration tested

MIC (An + Pf; [7]): 1150 µg/mL | MIC (An + Pf; Zinc Glyphosate with OIT study): 450 µg/mL | MIC (ApCh; [7]): 575 µg/mL | MIC (ApCh; [9]): 900 µg/mL | MIC (AaTv; [7]): 288 µg/mL (≈ 1020 µM) | MIC (AaTv; [9]): 450 µg/mL (≈ 1590 µM)
Compound: CCCCCCCCn1sc(Cl)c(Cl)c1=O [DCOIT, 4,5-dichloro-2-n-octyl-4-isothiazolin-3-one]
% Inhibition (An + Pf; [6]): 80% | % Inhibition (An + Pf; [8]): 50% | MIC (Cs + Ck + Nc; [7]): 575 µg/mL | MIC (Cs + Ck + Nc; Zinc Glyphosate with OIT study): 900 µg/mL | % Inhibition (Cs + Ck + Nc; [6]): 20% | % Inhibition (Cs + Ck + Nc; [8]): 100% | % Inhibition (ApCh; [7]): 40% | % Inhibition (ApCh; Zinc Glyphosate with OIT study): 40% | % Inhibition (AaTv; [7]): 40% | % Inhibition (AaTv; Zinc Glyphosate with OIT study): 100% | % Inhibition (Cp + To + Ta; [6]): 80% | Total conc (minimum inhibitory concentration chosen for SI) (Cp + To + Ta; [7]): 575 ppm | % Inhibition (Cp + To + Ta; [8]): 80% | Total conc (minimum inhibitory concentration chosen for SI) (Cp + To + Ta; Zinc Glyphosate with OIT study): 1350 ppm | % Inhibition (Gs + Os; [6]): 60% | MIC (Gs + Os; [7]): 826 µg/mL | % Inhibition (Gs + Os; [8]): 80% | MIC (Gs + Os; [9]): 900 µg/mL

Compound: O=C(O)CNCP(=O)(O)O [Glyphosate, N-(phosphonomethyl)glycine]
% Inhibition (An + Pf; 750 ppm in paint, four weeks): 0% | % Inhibition (An + Pf; 1500 ppm in paint, four weeks): 5% | % Inhibition (An + Pf; 2500 ppm in paint, four weeks): 10% | % Inhibition (Cs + Ck + Nc; 750 ppm in paint, four weeks): 37.5% | % Inhibition (Cs + Ck + Nc; 1500 ppm in paint, four weeks): 60% | % Inhibition (Cs + Ck + Nc; 2500 ppm in paint, four weeks): 80% | EC50 [1]: 42 µg/mL (≈ 248 µM) | EbC50 ([2]; 72 hr): 485 mg/L | ErC50 ([2]; 72 hr, median effective concentration for growth rate): 460 mg/L | EbC50 ([2]; 7 day): 13.8 mg/L | % Inhibition (TV + Ch; 750 ppm in paint): 2.5% | % Inhibition (TV + Ch; 1500 ppm in paint): 50% | % Inhibition (TV + Ch; 2500 ppm in paint): 72.5% | % Inhibition (Cp + To + Ta; 750 ppm in paint, four weeks): 0% | % Inhibition (Cp + To + Ta; 1500 ppm in paint, four weeks): 10% | % Inhibition (Cp + To + Ta; 2500 ppm in paint, four weeks): 7.5% | EC50 ([3]; 96 hr): 1.3 µg/mL (≈ 7.69 µM) | EC50 ([3]; 7 day): 0.64 µg/mL (≈ 3.79 µM) | % Inhibition (Aa + Ap; 750 ppm in paint): 7.5% | % Inhibition (Aa + Ap; 1500 ppm in paint): 20% | % Inhibition (Aa + Ap; 2500 ppm in paint): 67.5% | EC50 [4]: 15 µg/mL (≈ 88.7 µM) | % Inhibition (Gs + Os; 750 ppm in paint, four weeks): 15% | % Inhibition (Gs + Os; 1500 ppm in paint, four weeks): 72.5% | % Inhibition (Gs + Os; 2500 ppm in paint, four weeks): 90% | solubility in water [5]: relatively high

Compound: Zinc Glyphosate
% Inhibition (An + Pf; 750 ppm in paint, four weeks): 20% | % Inhibition (An + Pf; 1500 ppm in paint, four weeks): 27.5% | % Inhibition (An + Pf; 2500 ppm in paint, four weeks): 30% | % Inhibition (TV + Ch; 750 ppm in paint): 50% | % Inhibition (TV + Ch; 1500 ppm in paint): 75% | % Inhibition (TV + Ch; 2500 ppm in paint): 90% | % Inhibition (Aa + Ap; 1500 ppm in paint): 47.5% | % Inhibition (Aa + Ap; 2500 ppm in paint): 70% | % Inhibition (Gs + Os; 750 ppm in paint, four weeks): 15% | % Inhibition (Gs + Os; 1500 ppm in paint, four weeks): 72.5% | % Inhibition (Gs + Os; 2500 ppm in paint, four weeks): 90%
